Measurements taken from patent US20110105436A1, “HETEROARYL COMPOUNDS, COMPOSITIONS, AND METHODS OF USE IN CANCER TREATMENT” (AUCKLAND UNISERVICES LIMITED, priority 2008, published 2011).

Columns and labels:
SN12C-VHL shRNA tumors = test: Tumor growth of SN12C-VHL shRNA cells in scid mice; format: in vivo; settings: VHL-deficient tumors, daily intraperitoneal treatment, FIG. 1E
Method: In vivo studies. 2−3×10^6 SN12C and SN12C-VHL shRNA cells were injected in male scid mice 4-6 weeks old. When tumor volume reached 150 mm^3, mice were randomized into vehicle control group or STF-62247 treatment group. Mice were treated every day with […] of STF-62247 intraperitoneally. Tumor growth was measured every 2-3 days after the drug treatment was started.
(§1) A. RCC4 and RCC4/VHL cells were labeled with EYFP and the effect of STF-62247 was monitored by fluorescence in each cell type separately. Cells are pseudocolored. B. Clonogenic assay in RCC4, RCC4/VHL, SN12C, SN12C-VHL shRNA cells in the presence of STF-62247 (0-30 μM). Each point of the cell survival is calculated by the average of three different experiments in triplicate as the percent of treated on untreated plate. The error bars represented the standard error of the mean (SEM). C. Upper Panel, clonogenic assay in RCC4 infected with HIF-1α or HIF-2α shRNA by retroviral infection in presence of drug in same conditions described above. Bottom panel, HIF-1α or HIF-2α protein expression evaluated by western blot in RCC4 cells with HIF-1α or HIF-2α shRNA. Tubulin is used as loading control. […] Tumor volume was measured every 2-3 days and data are represented in fold. Five tumors in each condition were analyzed where * p<0.05, **p<0.01 and ***p<0.005.

[1] = test system: RCC4, RCC4/VHL, SN12C and SN12C-VHL shRNA cells; test: Vacuole formation by light and time-lapse microscopy; format: cell-based
Method: A. Phase contrast pictures of VHL-deficient RCC4 and SN12C-VHL shRNA cells and VHL-positive cells RCC4 and SN12C after 20 hrs of 1.25 μM STF-62247. B. Immunostaining for LC3 following STF-62247 treatment at 1.25 μM for 20 hrs with or without 2 mM of 3-MA in RCC4 with and without VHL cells. After treatment, cells were fixed, permeabilized and processed for the detection of punctuate staining by indirect immunofluorescence. C. Autophagic vacuoles stained with monodansylcadaverine (MDC). After STF-62247 treatment in the same conditions, MDC was added for the last 10 minutes. Cells were fixed, washed with PBS and observed directly under microscope. D. Western blot for LC3 in RCC4, RCC4/VHL, SN12C, and SN12C-VHL shRNA cells after STF-62247 treatment with or without 3-MA. Nutrient starvation (EBSS) is used as positive control. […] Viability is measured by trypan blue exclusion assay and is represented by the average of three different experiments in duplicate as the percent of treated on untreated cells. […]
A. RCC4 and RCC4/VHL were treated with 1.25 μM of each 19 analogs for 20 hours and the presence of vacuoles was examined under light microscopy. […] Acidic vesicle organelles (AVO) measured by FACS analysis in cells treated with 1.25 μM of STF-62247 or with compounds 21, 15, 25, 47, and 53 and stained with acridine orange.

RCC4 and RCC4/VHL cells [2] = test: Apoptosis by Hoechst, Annexin V staining and caspase-3; format: cell-based; settings: in vitro, VHL-deficient cells, 1.25 μM; confirmed by caspase-3 in tumor sections
Method: (§2) B. XTT assay in RCC4 and RCC4/VHL in presence of STF-62247 (0-40 μM). Each point of the cell survival is calculated by the average of three different experiments in duplicate as the percent of treated on untreated plate. The error bars are represented as the standard error of the mean (SEM) C. qRT-PCR for Glutl, VEGF, PDF and PGK in RCC4 cells with or without HIF-1a, HIF-2a shRNA and in RCC4/VHL. D. Hoescht staining in RCC4 and RCC4/VHL cells with 1.25 μM of STF-62247 for 2 days. Camptothecin was used as positive control E. FACS analysis for apoptosis after an annexin V-FITC staining in presence or absence of propidium iodine (PI) in cells after a treatment in same conditions than in C. F. Immunoblot for active caspase-3 in RCC4 and RCC4/VHL following treatment with 1.25 μM of STF-62247 for 24 hours. Staurosporine was used as positive control (0.2 μM for 24 hours). G,H. Immunostaining of caspase-3 and Ki67 respectively in SN12C and SN12C+shVHL tumor samples untreated or treated with 30 μM of STF-62247.1. Immunoblot for p53 and SerlS phospho-p53 in RCC4 and RCC4/VHL cells after a treatment with 1.25 μM of STF-62247 or doxorubicin for 24 hours.

RCC4 and RCC4/VHL cells [3] = test: DNA damage: comet assay and p53 immunoblot; format: cell-based
Method: as §2

[4] = test system: RCC4, RCC4/VHL, SN12C and SN12C-VHL shRNA cells; test: Clonogenic cell survival assay; format: cell-based
Method: Clonogenic Cell Survival Assay. RCC4, RCC4/VHL, SN12C and SN12C-VHL shRNA were plated at 300 cells per 60 mm tissue culture dish. The following day, vehicle or STF-62247 was added and cells were incubated in the presence of drug for 10 days in RCC4 and RCC4/VHL and 7-10 days for SN12C and SN12C-VHL shRNA. The colonies were stained with crystal violet, and quantified. Each experiment was performed at least three times in triplicate.
as §1

## Cc1cccc(Nc2nc(-c3ccncc3)cs2)c1 [Compound 5, N-(3-Methylphenyl)-4-(4-pyridinyl)-1,3-thiazol-2-amine]
SN12C-VHL shRNA tumors
  tumor growth: significantly reduced tumor growth in VHL-deficient cells
[1]; 1.25 μM, 20 hrs, FIG. 2A
  vacuole formation: accumulated intracytoplasmic vacuoles characteristic of cells undergoing autophagy
[1]; time-lapse for 48 hours, RCC cells with and without VHL
  time of appearance of vacuoles after addition: 3 h
RCC4 and RCC4/VHL cells [2]
  induction of apoptosis: did not induce apoptosis
RCC4 and RCC4/VHL cells [3]; 1.25 μM, 24 hours, FIG. 7I
  phosphorylation of p53 on serine 15 and total p53 levels: unaffected
RCC4 and RCC4/VHL cells [3]; data not shown
  DNA damage by comet assay: did not induce DNA damage
[4]; RCC4 with HIF-1α or HIF-2α shRNA, RCC4/VHL with stable HIF-2α
  dependence of cytotoxicity on HIF: induces cytotoxicity in VHL-null cells in a HIF-independent manner
[4]; VHL-deficient versus VHL wild-type cells, 0-30 μM, FIG. 1B
  selective toxicity in clonogenic assays: selectively toxic to VHL-deficient cells compared to their VHL wild-type counterparts
